Experimental data published in patent US5032577A, “Peptidylaminodiols” (Abbott Laboratories, priority 1987, dated 1991).
pIC50: −log10 of the molar value. Where a name gives a salt, the structure may show the parent alone.

Each molecule was assayed against T1, human renal renin (Homo sapiens, UniProt P00797) (assay: Inhibition of human renal renin in vitro; angiotensin I formed measured by radioimmunoassay). Conditions: not given.
T1 construct: human renal renin, free from acid proteolytic activity; from tissue
T1 sequence (P00797 67-406): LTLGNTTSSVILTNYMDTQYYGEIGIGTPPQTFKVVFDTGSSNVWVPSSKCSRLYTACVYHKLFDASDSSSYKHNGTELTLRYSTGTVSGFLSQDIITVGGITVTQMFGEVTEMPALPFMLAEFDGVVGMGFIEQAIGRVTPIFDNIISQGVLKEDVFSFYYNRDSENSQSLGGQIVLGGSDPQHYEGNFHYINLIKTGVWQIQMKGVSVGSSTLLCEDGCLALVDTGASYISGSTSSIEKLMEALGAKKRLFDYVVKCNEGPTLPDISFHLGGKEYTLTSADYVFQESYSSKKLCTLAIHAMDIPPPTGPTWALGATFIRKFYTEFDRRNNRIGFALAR
Type: biochemical

Compared with CC(C)C[C@H](O)[C@H](O)[C@H](CC1CCCCC1)NC(=O)[C@H](Cc1c[nH]cn1)NC(=O)[C@H](CC1CCCCC1)NC(=O)CC(C)(C)C [Example 21, TBA-CHA-His Amide of 2(S)-Amino-l-cyclohexyl-3(R),4(S)-dihydroxy-6-methylheptane], CC(C)C[C@H](O)[C@H](O)[C@H](CC1CCCCC1)NC(=O)[C@H](Cc1c[nH]cn1)NC(=O)[C@H](Cc1ccccc1)NC(=O)C1CCNCC1 [Example 68, H-Isonipectoyl-Phe-His Amide of 2(S)-Amino-l-cyclohexyl-3(R),4(S)-dihydroxy-6-methylheptane Diacetic Acid Salt] is 0.30 log units higher in pIC50: 8.70 for the first, 9.00 for the second.

Going from COc1ccc(C[C@@H](C(=O)N[C@@H](CC(C)C)C(=O)N[C@@H](CC2CCCCC2)[C@@H](O)[C@@H](O)CC(C)C)N(C)C)cc1 [Example 56, (N,N-Dimethyl,4-methoxy)-Phe-Leu Amide of 2(S)-Amino-1-cyclohexyl-3(R),4(S)-dihydroxy-6-methylheptane] to COc1ccc(C[C@H](NC(=O)CCCCC(N)C(=O)O)C(=O)N[C@@H](CC(C)C)C(=O)N[C@@H](CC2CCCCC2)[C@@H](O)[C@@H](O)CC(C)C)cc1 (stereo partly drawn) [Example 194, 6-Amino-6-carboxyhexanoyl-(4-OMe)Phe-Leu Amide of 2(S)-Amino-l-cyclohexyl-3(R),4(S)-dihydroxy-6-methylheptane], the pIC50 rises from 8.26 to 8.64 (0.38 log units).

Compared with CC(C)C[C@H](O)[C@H](O)[C@H](CC1CCCCC1)NC(=O)[C@H](Cc1c[nH]cn1)NC(=O)[C@H](Cc1ccccc1)NC(=O)CO [Example 103, Hydroxyacetyl-Phe-His Amide of 2(S)-Amino-l-cyclohexyl-3(R),4(S)-dihydroxy-6-methylheptane], CC(C)C[C@H](O)[C@H](O)[C@H](CC1CCCCC1)NC(=O)[C@H](Cc1c[nH]cn1)NC(=O)[C@H](Cc1ccccc1)NC(=O)CCN [Example 62, H-β-Ala-Phe-His Amide of 2(S)-Amino-l-cyclohexyl-3(R), 4(S)-dihydroxy-6-methylheptane Diacetic Acid Salt] is 0.30 log units lower in pIC50: 9.00 for the first, 8.70 for the second.

CC(C)C[C@H](O)[C@H](O)[C@H](CC1CCCCC1)NC(=O)[C@H](Cc1c[nH]cn1)NC(=O)C(Cc1ccccc1)Cc1ccccc1 [Example 27, Dba-His Amide of 2(S)-Amino-l-cyclohexyl-3(R),4(S)-dihydroxy-6-methylhectane] and CC(C)C[C@H](O)[C@H](O)[C@H](CC1CCCCC1)NC(=O)[C@H](Cc1c[nH]cn1)NC(=O)[C@@H](N)Cc1ccccc1 [Example 84, Phe-His Amide of 2(S)-Amino-l-cyclohexyl-3(R),4(S)-dihydroxy-6-methylheptane] are within 0.2 log units of each other in pIC50: 8.15 for the first, 8.00 for the second.

CC(C)C[C@H](O)[C@H](O)[C@H](CC1CCCCC1)NC(=O)[C@H](Cc1c[nH]cn1)NC(=O)[C@H](Cc1ccccc1)NC(=O)[C@@H]1CCCN1C(=O)OCc1ccccc1 [Example 76, Cbz-Pro-Phe-His Amide of 2(S)-Amino-l-cyclohexyl-3(R), 4(S)-dihydroxy-6-methyl- heptane] and CC(C)C[C@H](O)[C@H](O)[C@H](CC1CCCCC1)NC(=O)[C@H](Cc1c[nH]cn1)NC(=O)[C@H](Cc1ccccc1)NC(=O)CC(C)(C)NC(=O)OCc1ccccc1 [Example 74, Cbz-[(β,β-di-Me)-β-Ala]-Phe-His Amide of 2(S)-Amino-1-cyclohexyl-3(R),4(S)-dihydroxy-6-methylheptane] are within 0.2 log units of each other in pIC50: 9.30 for the first, 9.15 for the second.

Compared with CC(C)C[C@H](O)[C@H](O)[C@H](CC1CCCCC1)NC(=O)[C@H](Cc1c[nH]cn1)NC(=O)CCc1ccccc1 [Example 28, Pp-His Amide of 2(S)-Amino-l-cyclohexyl-3(R),4(S)-dihydroxy-6-methylheptane], CNCC(=O)N[C@@H](Cc1ccccc1)C(=O)N[C@@H](Cc1c[nH]cn1)C(=O)N[C@@H](CC1CCCCC1)[C@@H](O)[C@@H](O)CC(C)C [Example 64, H-Sar-Phe-His Amide of 2(S)-Amino-l-cyclohexyl-3(R),4(S)-dihydroxy-6-methylheptane Diacetic Acid Salt] is 1.42 log units higher in pIC50: 7.10 for the first, 8.52 for the second.

First: CC(C)C[C@H](O)[C@H](O)[C@H](CC1CCCCC1)NC(=O)[C@H](Cc1c[nH]cn1)NC(=O)[C@H](Cc1ccccc1)NC(=O)c1ccc[nH]1 [Example 89, (Pyrrol-2-yl-carbonyl)-Phe-His Amide of 2(S)-Amino-1-cyclohexyl-3(R),4(S)-dihydroxy-6-methylheptane]
Second: CC(C)C[C@H](O)[C@H](O)[C@H](CC1CCCCC1)NC(=O)[C@H](Cc1c[nH]cn1)NC(=O)[C@H](Cc1ccccc1)NC(=O)[C@@H](C)N [Example 70, H-D-Ala-Phe-His Amide of 2(S)-Amino-l-cyclohexyl-3(R), 4(S)-dihydroxy-6-methylheptane Diacetic Acid Salt]
The pIC50 of the first is 0.40 log units higher: 9.00 for the first, 8.60 for the second.

First: CC(C)C[C@H](O)[C@H](O)[C@H](CC1CCCCC1)NC(=O)[C@H](Cc1c[nH]cn1)NC(=O)[C@H](CCc1ccccc1)NC(=O)C(C)C [Example 108, Isobutyryl-Homo-Phe-His Amide of 2(S)-Amino-l-cyclohexyl-3(R),4(S)-dihydroxy-6-methylheptane]
Second: CC(=O)N(C)[C@@H](Cc1ccccc1)C(=O)N[C@@H](Cc1c[nH]cn1)C(=O)N[C@@H](CC1CCCCC1)[C@@H](O)[C@@H](O)CC(C)C [Example 23, Acetyl-N-methylPhe-His Amide of 2(S)-Amino-1-cyclohexyl-3(R),4(S)-dihydroxy-6-methylheptane]
The pIC50 of the first is 1.26 log units higher: 9.26 for the first, 8.00 for the second.

Compared with CC(C)C[C@H](O)[C@H](O)[C@H](CC1CCCCC1)NC(=O)[C@H](Cc1c[nH]cn1)NC(=O)[C@H](Cc1ccccc1)NC(=O)[C@@H]1CCCN1 [Example 77, H-Pro-Phe-His Amide of 2(S)-Amino-l-cyclohexyl-3(R), 4(S)-dihydroxy-6-methylheptane Acetic Acid Salt], CC(=O)O[C@@H](Cc1ccccc1)C(=O)N[C@@H](Cc1c[nH]cn1)C(=O)N[C@@H](CC1CCCCC1)[C@@H](O)[C@@H](O)CC(C)C [Example 24, Ac-Pl-His Amide of 2(S)-Amino-l-cyclohexyl-3(R),4(S)-dihydroxy-6-methylheptane] is 0.31 log units lower in pIC50: 9.01 for the first, 8.70 for the second.

Going from CC(C)C[C@H](O)[C@H](O)[C@H](CC1CCCCC1)NC(=O)[C@H](Cc1c[nH]cn1)NC(=O)[C@H](Cc1ccccc1)OC(=O)N1CCOCC1 [Example 111, 2(S)-[(4-Morpholinyl)carbonyl]oxy-3-phenylpropionyl-His Amide of 2(S)-Amino-l-cyclohexyl-3(R),4(S)-dihydroxy-6-methylheptane] to CC(C)C[C@H](O)[C@H](O)[C@H](CC1CCCCC1)NC(=O)[C@H](Cc1c[nH]cn1)NC(=O)C(NC(=O)N1CCOCC1)C(C)(C)c1ccccc1 (stereo partly drawn) [Example 178, 2(R,S)-[[(4-Morpholinyl)carbonyl]amino]-3,3-dimethyl-3-phenylpropionyl-His Amide of 2(S)-Amino-l-cyclohexyl-3(R),4(S)-dihydroxy-6-methylheptane], the pIC50 falls from 9.30 to 8.70 (0.60 log units).

First: C=CCOC(=O)N[C@@H](Cc1ccccc1)C(=O)N[C@@H](CC(C)C)C(=O)N[C@@H](CC1CCCCC1)[C@@H](O)[C@@H](O)CC(C)C [Example 90, Allyloxycarbonyl-Phe-Leu Amide of 2(S)-Amino-l-cyclohexyl-3(R),4(S)-dihydroxy-6-methylheptaine]
Second: COCCOCOCCN(C)C(=O)C[C@@H](Cc1ccccc1)C(=O)N[C@@H](Cc1c[nH]cn1)C(=O)N[C@@H](CC1CCCCC1)[C@@H](O)[C@@H](O)CC(C)C [Example 214, (2R)-2-Benzyl-3-(N-methyl-N-2-methoxyethoxymethoxyethylamino-carbonyl)propionyl-His Amide of 2(S)-Amino-l-cyclohexyl-3(R),4(S)-dihydroxy-6-methylheptane]
The pIC50 of the first is 0.22 log units lower: 9.40 for the first, 9.62 for the second.

COc1ccc(C[C@H](NC(=O)C2CCNCC2)C(=O)N[C@@H](Cc2c[nH]cn2)C(=O)N[C@@H](CC2CCCCC2)[C@@H](O)[C@@H](O)CC(C)C)cc1 [Example 179, H-Isonipecotyl-(4-OCH3)Phe-His Amide of 2(S)-Amino-1-cyclohexyl-3(R),4(S)-dihydroxy-6-methylheptane Diacetic Acid Salt] gave a pIC50 of 9.00.

Same assay, conditions: human renal renin free from acid proteolytic activity, renin substrate human angiotensinogen, 37° C., pH 6.0

First: CC(C)C[C@H](O)[C@H](O)[C@H](CC1CCCCC1)NC(=O)[C@H](C)NC(=O)[C@H](Cc1ccccc1)NC(=O)OC(C)(C)C [Example 33, Boc-phe-Ala Amide of 2(S)-Amino-l-cyclohexyl-3(R),4(S)-dihydroxy-6-methylheptane]
Second: CC(C)C[C@H](O)[C@@H](O)[C@H](CC1CCCCC1)NC(=O)[C@H](Cc1c[nH]cn1)NC(=O)[C@H](Cc1ccccc1)NC(=O)OC(C)(C)C [Example 16, Boc-Phe-His Amide of 2(S)-Amino-l-cyclohexyl-3(S),4(S)-dihydroxy-6-methylheptane]
The pIC50 of the first is 1.15 log units higher: 8.30 for the first, 7.15 for the second.

First: CC(C)C[C@@H](O)[C@@H](O)[C@H](CC1CCCCC1)NC(=O)[C@H](Cc1c[nH]cn1)NC(=O)[C@H](Cc1ccccc1)NC(=O)OC(C)(C)C [Example 18, Boc-Phe-His Amide of 2(S)-Amino-l-cyclohexyl-3(S),4(R)-dihydroxy-6-methylheptane]
Second: C[C@H](O)[C@H](O)[C@H](CC1CCCCC1)NC(=O)[C@H](Cc1c[nH]cn1)NC(=O)[C@H](Cc1ccccc1)NC(=O)OC(C)(C)C [Example 49, Boc-Phe-His Amide of 2(S)-Amino-l-cyclohexyl-3(R),4(S)-dihydroxypentane]
The pIC50 of the first is 1.68 log units lower: 7.02 for the first, 8.70 for the second.

CC(C)C[C@H](O)[C@H](O)[C@H](CC1CCCCC1)NC(=O)[C@H](Cc1ccccc1)NC(=O)[C@H](Cc1ccccc1)NC(=O)OC(C)(C)C [Example 34, Boc-Phe-Phe Amide of 2(S)-Amino-l-cyclohexyl-3(R),4(S)-dihYdroxy-6-methYlheptane] was tested, and the pIC50 was 8.82.
